Source: ChEMBL document CHEMBL1158337, “Synthesis and bioassay of a new class of heterocycles pyrrolyl oxadiazoles/thiadiazoles/triazoles” (Eur J Med Chem, 2009)
Converted amounts (≈) assume the structure as drawn.

Key:
[1] = test system: Fusarium solani; test: Antifungal activity against Fusarium solani at 100 ug/disk after 48 hrs by agar disc-diffusion method; format: functional; details: read-out: IZ
[2] = test system: Fusarium solani; test: Antifungal activity against Fusarium solani at 200 ug/disk after 48 hrs by agar disc-diffusion method; format: functional; details: read-out: IZ
[3] = test system: Curvularia lunata; test: Antifungal activity against Curvularia lunata at 100 ug/disk after 48 hrs by agar disc-diffusion method; format: functional; details: read-out: IZ
[4] = test system: Curvularia lunata; test: Antifungal activity against Curvularia lunata at 200 ug/disk after 48 hrs by agar disc-diffusion method; format: functional; details: read-out: IZ
[5] = test system: Aspergillus niger; test: Antifungal activity against Aspergillus niger at 100 ug/disk after 48 hrs by agar disc-diffusion method; format: functional; details: read-out: IZ
[6] = test system: Aspergillus niger; test: Antifungal activity against Aspergillus niger at 200 ug/disk after 48 hrs by agar disc-diffusion method; format: functional; details: read-out: IZ
[7] = test system: Fusarium solani; test: Antifungal activity against Fusarium solani after 48 hrs by microdilution susceptibility method; format: functional
[8] = test system: Curvularia lunata; test: Antifungal activity against Curvularia lunata after 48 hrs by microdilution susceptibility method; format: functional
[9] = test system: Aspergillus niger; test: Antifungal activity against Aspergillus niger after 48 hrs by microdilution susceptibility method; format: functional
[10] = test system: Staphylococcus aureus; test: Antibacterial activity against Staphylococcus aureus at 100 ug/disk after 24 hrs by agar disc-diffusion method; format: functional; details: read-out: IZ
[11] = test system: Staphylococcus aureus; test: Antibacterial activity against Staphylococcus aureus at 200 ug/disk after 24 hrs by agar disc-diffusion method; format: functional; details: read-out: IZ
[12] = test system: Bacillus subtilis; test: Antibacterial activity against Bacillus subtilis at 100 ug/disk after 24 hrs by agar disc-diffusion method; format: functional; details: read-out: IZ
[13] = test system: Bacillus subtilis; test: Antibacterial activity against Bacillus subtilis at 200 ug/disk after 24 hrs by agar disc-diffusion method; format: functional; details: read-out: IZ
[14] = test system: Escherichia coli; test: Antibacterial activity against Escherichia coli at 100 ug/disk after 24 hrs by agar disc-diffusion method; format: functional; details: read-out: IZ
[15] = test system: Escherichia coli; test: Antibacterial activity against Escherichia coli at 200 ug/disk after 24 hrs by agar disc-diffusion method; format: functional; details: read-out: IZ
[16] = test system: Klebsiella pneumoniae; test: Antibacterial activity against Klebsiella pneumoniae at 100 ug/disk after 24 hrs by agar disc-diffusion method; format: functional; details: read-out: IZ
[17] = test system: Klebsiella pneumoniae; test: Antibacterial activity against Klebsiella pneumoniae at 200 ug/disk after 24 hrs by agar disc-diffusion method; format: functional; details: read-out: IZ
[18] = test system: Bacillus subtilis; test: Antibacterial activity against Bacillus subtilis after 24 hrs by microdilution susceptibility method; format: functional
[19] = test system: Klebsiella pneumoniae; test: Antibacterial activity against Klebsiella pneumoniae after […] by microdilution susceptibility method; format: functional
[20] = test system: A549; test: Cytotoxicity against human A549 cells upto 100 uM after 72 hrs by MTT assay in presence of 10% fetal bovine serum; format: functional, cell-based
[21] = Cytotoxicity against mink CCL64 cells upto 100 uM after 72 hrs by MTT assay in presence of 0.2% fetal bovine serum; format: cell-based; details: neovison vison, ccl64, 72 h
[22] = test system: Staphylococcus aureus; test: Antibacterial activity against Staphylococcus aureus after 24 hrs by microdilution susceptibility method; format: functional
[23] = test system: Escherichia coli; test: Antibacterial activity against Escherichia coli after 24 hrs by microdilution susceptibility method; format: functional

| SMILES | zone of inhibition at 100 µg/disc [1] | zone of inhibition at 200 µg/disc [2] | zone of inhibition at 100 µg/disc [3] | zone of inhibition at 200 µg/disc [4] | zone of inhibition at 100 µg/disc [5] | zone of inhibition at 200 µg/disc [6] | MIC [7] | MIC [8] | MIC [9] | zone of inhibition at 100 µg/disc [10] | zone of inhibition at 200 µg/disc [11] | zone of inhibition at 100 µg/disc [12] | zone of inhibition at 200 µg/disc [13] | zone of inhibition at 100 µg/disc [14] | zone of inhibition at 200 µg/disc [15] | zone of inhibition at 100 µg/disc [16] | zone of inhibition at 200 µg/disc [17] | MIC [18] | MIC [19] | further results |
| --- | --- | --- | --- | --- | --- | --- | --- | --- | --- | --- | --- | --- | --- | --- | --- | --- | --- | --- | --- | --- |
| CC(=O)N1CCN(c2ccc(OCC3COC(Cn4ccnc4)(c4ccc(Cl)cc4Cl)O3)cc2)CC1 (centres undefined) [KETOCONAZOLE] | 38 mm | 42 mm | 41 mm | 44 mm | 36 mm | 39 mm | 12.5 µg/mL (≈ 23.5 µM) | 6.25 µg/mL (≈ 11.8 µM) | 6.25 µg/mL (≈ 11.8 µM) | – | – | – | – | – | – | – | – | – | – | – |
| Cc1ccc(S(=O)(=O)c2c[nH]cc2S(=O)(=O)Cc2nnc(S)o2)cc1 | 16 mm | 19 mm | 15 mm | 18 mm | 17 mm | 21 mm | – | – | – | 11 mm | 14 mm | 12 mm | 16 mm | 11 mm | 14 mm | 11 mm | 13 mm | – | – | – |
| O=C(O)c1cn(C2CC2)c2cc(N3CCNCC3)c(F)cc2c1=O [CIPROFLOXACIN] | – | – | – | – | – | – | – | – | – | 34 mm | 38 mm | 36 mm | 42 mm | 40 mm | 45 mm | 37 mm | 42 mm | 6.25 µg/mL (≈ 18.9 µM) | 6.25 µg/mL (≈ 18.9 µM) | – |
| O=S(=O)(Cc1nnc(S)s1)c1c[nH]cc1S(=O)(=O)c1ccccc1 | 25 mm | 27 mm | 28 mm | 29 mm | 24 mm | 29 mm | – | – | – | 18 mm | 20 mm | 21 mm | 23 mm | 16 mm | 20 mm | 17 mm | 21 mm | – | – | Activity [20]: Not toxic; Activity [21]: Non-toxic |
| O=S(=O)(Cc1nnc(S)o1)c1c[nH]cc1S(=O)(=O)c1ccc(Cl)cc1 | 18 mm | 21 mm | 17 mm | 20 mm | 15 mm | 18 mm | – | – | – | 14 mm | 17 mm | 14 mm | 18 mm | 10 mm | 12 mm | 11 mm | 13 mm | – | – | – |
| O=S(=O)(Cc1nnc(S)s1)c1c[nH]cc1S(=O)(=O)c1ccc(Cl)cc1 | 26 mm | 31 mm | 23 mm | 25 mm | 26 mm | 28 mm | 100 µg/mL (≈ 229 µM) | 100 µg/mL (≈ 229 µM) | 200 µg/mL (≈ 459 µM) | 25 mm | 30 mm | 28 mm | 32 mm | 22 mm | 27 mm | 23 mm | 28 mm | 200 µg/mL (≈ 459 µM) | 200 µg/mL (≈ 459 µM) | MIC [22]: 100 µg/mL (≈ 229 µM); MIC [23]: 200 µg/mL (≈ 459 µM) |
| Cc1ccc(S(=O)(=O)c2c[nH]cc2S(=O)(=O)Cc2nnc(S)n2N)cc1 | 29 mm | 33 mm | 28 mm | 35 mm | 34 mm | 36 mm | – | – | – | 24 mm | 28 mm | 25 mm | 27 mm | 20 mm | 24 mm | 21 mm | 23 mm | – | – | – |
| Cc1ccc(S(=O)(=O)c2c[nH]cc2S(=O)(=O)Cc2nnc(S)s2)cc1 | 25 mm | 27 mm | 22 mm | 24 mm | 21 mm | 24 mm | – | – | – | 16 mm | 17 mm | 17 mm | 19 mm | 18 mm | 20 mm | 16 mm | 19 mm | – | – | – |
| Nn1c(S)nnc1CS(=O)(=O)c1c[nH]cc1S(=O)(=O)c1ccc(Cl)cc1 | 35 mm | 40 mm | 38 mm | 41 mm | 34 mm | 37 mm | 50 µg/mL (≈ 115 µM) | 12.5 µg/mL (≈ 28.8 µM) | 25 µg/mL (≈ 57.6 µM) | 32 mm | 35 mm | 34 mm | 38 mm | 23 mm | 25 mm | 26 mm | 28 mm | 50 µg/mL (≈ 115 µM) | 50 µg/mL (≈ 115 µM) | MIC [22]: 12.5 µg/mL (≈ 28.8 µM); MIC [23]: 50 µg/mL (≈ 115 µM) |
| O=S(=O)(Cc1nnc(S)o1)c1c[nH]cc1S(=O)(=O)c1ccccc1 | 18 mm | 20 mm | 17 mm | 21 mm | 15 mm | 20 mm | – | – | – | 12 mm | 15 mm | 11 mm | 13 mm | 14 mm | 17 mm | 13 mm | 16 mm | – | – | Activity [20]: Not toxic; Activity [21]: Non-toxic |
